ChEMBL document CHEMBL5214935, “Discovery of a potent M5 antagonist with improved clearance profile. Part 1: Piperidine amide-based antagonists” (Bioorg Med Chem Lett, 2022)
Positions count from the first letter of the chain named.

What was measured:
[1] = Intrinsic clearance in rat; assay type: ADME
[2] = target: T1, Muscarinic acetylcholine receptor M5 (Homo sapiens) (UniProt P08912); assay: Antagonist activity at human muscarinic M5 receptor expressed in CHO cells assessed as minimal acetylcholine response by calcium mobilisation assay relative to control; assay type: functional, cell-based; design: concentration or dose not given beside the values
T1 sequence (whole entry): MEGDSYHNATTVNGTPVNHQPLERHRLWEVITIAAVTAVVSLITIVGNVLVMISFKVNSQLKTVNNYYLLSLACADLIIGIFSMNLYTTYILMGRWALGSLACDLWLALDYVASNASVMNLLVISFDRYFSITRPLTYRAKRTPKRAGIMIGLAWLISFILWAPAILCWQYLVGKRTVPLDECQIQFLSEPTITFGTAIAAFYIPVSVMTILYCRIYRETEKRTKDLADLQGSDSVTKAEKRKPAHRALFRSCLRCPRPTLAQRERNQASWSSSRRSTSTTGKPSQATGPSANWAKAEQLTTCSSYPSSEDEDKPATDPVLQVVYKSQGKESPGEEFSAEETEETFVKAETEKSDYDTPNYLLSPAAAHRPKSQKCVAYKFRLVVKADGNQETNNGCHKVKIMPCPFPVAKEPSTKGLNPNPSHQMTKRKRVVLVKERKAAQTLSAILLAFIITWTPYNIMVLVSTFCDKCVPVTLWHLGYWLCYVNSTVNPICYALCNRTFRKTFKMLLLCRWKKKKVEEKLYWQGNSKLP

[3] = Intrinsic clearance in human; assay type: ADME
[4] = target: T2, Muscarinic acetylcholine receptor M5 (Homo sapiens, UniProt P08912); assay: Antagonist activity at human muscarinic M5 receptor expressed in CHO cells in the presence of acetylcholine by calcium mobilisation assay; assay type: functional, cell-based
T2 sequence (P08912 whole entry): T1 sequence (whole entry)

[5] = target: T3, Muscarinic acetylcholine receptor M5 (Rattus norvegicus) (UniProt P08911); assay: Antagonist activity at rat muscarinic M5 receptor assessed as minimal acetylcholine response relative to control; assay type: functional; design: scale not given: the % may be the effect or the level left; details: filed as antagonist
T3 sequence (whole entry): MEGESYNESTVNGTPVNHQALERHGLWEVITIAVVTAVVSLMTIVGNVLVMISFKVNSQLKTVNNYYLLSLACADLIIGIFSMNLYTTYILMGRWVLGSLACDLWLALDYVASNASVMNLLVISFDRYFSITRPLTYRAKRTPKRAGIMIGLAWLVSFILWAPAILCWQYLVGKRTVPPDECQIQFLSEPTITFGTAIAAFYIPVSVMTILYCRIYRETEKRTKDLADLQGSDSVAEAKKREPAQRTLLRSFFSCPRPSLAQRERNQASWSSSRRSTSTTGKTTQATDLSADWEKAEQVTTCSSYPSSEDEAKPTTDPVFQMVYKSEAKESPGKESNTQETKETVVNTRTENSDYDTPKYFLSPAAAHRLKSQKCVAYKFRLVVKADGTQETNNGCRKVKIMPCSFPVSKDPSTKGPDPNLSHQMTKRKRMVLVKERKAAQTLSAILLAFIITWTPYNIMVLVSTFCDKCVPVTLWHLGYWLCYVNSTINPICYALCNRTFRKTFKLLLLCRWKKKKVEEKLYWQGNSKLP

[6] = Unbound fraction in rat plasma; assay type: ADME, cell-free
[7] = target: T4, Muscarinic acetylcholine receptor M1 (Homo sapiens) (UniProt P11229); assay: Antagonist activity at human muscarinic M1 receptor expressed in CHO cells assessed as minimal acetylcholine response by calcium mobilisation assay; assay type: functional, cell-based; design: scale not given: the % may be the effect or the level left
T4 sequence (whole entry): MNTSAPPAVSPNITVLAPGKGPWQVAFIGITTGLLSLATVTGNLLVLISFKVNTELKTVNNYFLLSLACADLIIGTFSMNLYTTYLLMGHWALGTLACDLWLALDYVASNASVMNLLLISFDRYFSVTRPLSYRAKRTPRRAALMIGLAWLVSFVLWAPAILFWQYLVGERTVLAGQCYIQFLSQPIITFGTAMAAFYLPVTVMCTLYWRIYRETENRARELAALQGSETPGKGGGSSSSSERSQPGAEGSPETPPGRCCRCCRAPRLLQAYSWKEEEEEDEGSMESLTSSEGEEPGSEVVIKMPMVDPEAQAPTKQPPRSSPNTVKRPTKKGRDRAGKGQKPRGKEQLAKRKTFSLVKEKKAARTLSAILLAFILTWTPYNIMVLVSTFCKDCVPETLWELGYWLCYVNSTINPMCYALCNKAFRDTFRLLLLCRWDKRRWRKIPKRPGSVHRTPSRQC

[8] = Unbound fraction in human plasma; assay type: ADME, cell-free
[9] = Unbound fraction in rat brain; assay type: ADME, tissue-based
[10] = target: T5, Muscarinic acetylcholine receptor M5 (Rattus norvegicus, UniProt P08911); assay: Antagonist activity at rat muscarinic M5 receptor; assay type: functional
T5 sequence (P08911 whole entry): T3 sequence (whole entry)

[11] = Apparent permeability in MDCK-MDR1 cells; assay type: ADME, cell-based, Canis lupus familiaris; details: dog
[12] = target: T6, Muscarinic acetylcholine receptor M1 (Homo sapiens, UniProt P11229); assay: Antagonist activity at human muscarinic M1 receptor expressed in CHO cells in the presence of acetylcholine by calcium mobilisation assay; assay type: functional, cell-based
T6 sequence (P11229 whole entry): T4 sequence (whole entry)

P-glycoprotein (human) = assay: Efflux ratio of permeability in MDCK-MDR1 cells expressing human P-glycoprotein; assay type: ADME, cell-based, Canis lupus familiaris; details: dog
[13] = target: T7, Muscarinic acetylcholine receptor M1 (Rattus norvegicus, UniProt P08482); assay: Antagonist activity at rat muscarinic M1 receptor expressed in CHO cells in the presence of acetylcholine by calcium mobilisation assay; assay type: functional, cell-based
T7 sequence (P08482 whole entry): T4 sequence (whole entry) with A5V, T254S, P309S, R320K, A337G, I413V

[14] = target: T8, Muscarinic acetylcholine receptor M1 (Rattus norvegicus) (UniProt P08482); assay: Antagonist activity at rat muscarinic M1 receptor expressed in CHO cells assessed as minimal acetylcholine response by calcium mobilisation assay relative to control; assay type: functional, cell-based; design: scale not given: the % may be the effect or the level left; details: filed as antagonist
T8 sequence (whole entry): T4 sequence (whole entry) with A5V, T254S, P309S, R320K, A337G, I413V

[15] = target: T6, Muscarinic acetylcholine receptor M1; assay: Antagonist activity at human muscarinic M1 receptor; assay type: functional
[16] = Clearance in rat plasma; assay type: ADME, cell-free
[17] = Elimination half life in rat; assay type: ADME; details: in vivo, read-out: beta t1/2
[18] = Volume of distribution at steady state in rat; assay type: ADME; details: in vivo, read-out: Vdss

Row | CLint scaled [1] | Activity ([2]; filed as antagonist) | CLint scaled [3] | IC50 [4] | SMILES | further results
1 | 43 mL/min/kg | 3% | 5 mL/min/kg |  | Cc1ccc(S(=O)(=O)N2CCC(C(=O)Nc3ccc4scnc4c3)CC2)cn1 | 
2 | 81 mL/min/kg | 2% | 6 mL/min/kg | 13 nM | Cc1ncc(S(=O)(=O)N2CC[C@H](C(=O)Nc3ccc4scnc4c3)[C@@H](F)C2)s1 (racemic) | Fu [6]: 0.007; IC50 [13]: 300 nM; Fu [8]: 0.02; fraction unbound [9]: 0.06; Activity [14]: 3%
3 | 212 mL/min/kg | 2% | 20 mL/min/kg |  | O=C(Nc1ccc2scnc2c1)C1CCN(S(=O)(=O)c2ccc3ncccc3c2)CC1 | 
4 | 81 mL/min/kg | 2% | 36 mL/min/kg | 266 nM | O=C(Nc1ccc2scnc2c1)C1CCN(S(=O)(=O)c2ccc3ncsc3c2)CC1 | 
5 |  | 16% |  | > 10000 nM | CC1Cc2cc(S(=O)(=O)N3CCC(C(=O)Nc4ccc5scnc5c4)CC3)ccc2O1 (racemic) | 
6 | 1020 mL/min/kg | 3% | 263 mL/min/kg | 109 nM | CC1COc2ccc(S(=O)(=O)N3CCC(C(=O)Nc4ccc5scnc5c4)CC3)cc21 (racemic) | 
7 | 426 mL/min/kg | 19% | 74 mL/min/kg | 594 nM | Cc1nc2cc(NC(=O)C3CCN(S(=O)(=O)c4ccc5c(c4)CCO5)CC3)ccc2s1 | 
8 | 373 mL/min/kg |  |  |  | O=C(Nc1ccc2scnc2c1)C1CCN(S(=O)(=O)c2ccc3c(c2)CCO3)CC1 | IC50 [15]: 2140 nM; IC50 [10]: 249 nM
9 | 45 mL/min/kg | 2% | 5 mL/min/kg |  | Cc1nn(C)cc1S(=O)(=O)N1CCC(C(=O)Nc2ccc3scnc3c2)CC1 | Activity [5]: 4%; Fu [6]: 0.03; IC50 [13]: > 10000 nM; Activity [7]: 50%; Fu [8]: 0.14; clearance [16]: 11.1 mL/min/kg; half-life [17]: 1.43 h; fraction unbound [9]: 0.2; IC50 [10]: 1330 nM; Activity [14]: 35%; Vd [18]: 0.61 L/kg; Papp [11]: 0.374 10^-6 cm/s; IC50 [12]: > 10000 nM; efflux ratio (P-glycoprotein (human)): 110
10 | 207 mL/min/kg | 2% | 19 mL/min/kg | 59 nM | O=C(Nc1ccc2scnc2c1)C1CCN(S(=O)(=O)c2cccnc2)CC1 | 
11 | 62 mL/min/kg | 3% | 21 mL/min/kg | 168 nM | O=C(Nc1ccc2scnc2c1)C1CCN(S(=O)(=O)c2ccc(Cl)nc2)CC1 | 
12 |  |  |  | 2800 nM | O=C(Nc1ccc2scnc2c1)C1CCN(S(=O)(=O)c2ccc(Cl)s2)CC1 | IC50 [15]: > 10000 nM

Second part, the compound before the results:

Row | SMILES | CLint scaled [1] | Activity ([2]; filed as antagonist) | CLint scaled [3] | IC50 [4] | further results
13 | C[C@@H]1C[C@H](C(=O)Nc2ccc3scnc3c2)CCN1S(=O)(=O)c1ccc2c(c1)CCO2 (racemic) | 572 mL/min/kg | 2% | 264 mL/min/kg | 134 nM | 
14 | Cc1nn(C)cc1S(=O)(=O)N1CC[C@H](C(=O)Nc2ccc3scnc3c2)[C@@H](F)C1 (racemic) | 260 mL/min/kg | 3% | 7 mL/min/kg | 309 nM | Activity [5]: 3%; Fu [6]: 0.02; Activity [7]: 51%; Fu [8]: 0.26; fraction unbound [9]: 0.17; IC50 [10]: 572 nM; Papp [11]: 0.431 10^-6 cm/s; IC50 [12]: > 10000 nM; efflux ratio (P-glycoprotein (human)): 110
15 | O=C(Nc1ccc2cccnc2c1)C1CCN(S(=O)(=O)c2ccc3c(c2)CCO3)CC1 | 740 mL/min/kg | 3% | 99 mL/min/kg |  | 
16 | CN(C(=O)C1CCN(S(=O)(=O)c2ccc3c(c2)CCO3)CC1)c1ccc2scnc2c1 |  |  |  |  | Activity [2]: 51%
17 | O=C(Nc1ccc2snnc2c1)C1CCN(S(=O)(=O)c2ccc3c(c2)CCO3)CC1 | 804 mL/min/kg | 10% | 108 mL/min/kg | 143 nM | 
18 | Cn1ncc(S(=O)(=O)N2CC[C@H](C(=O)Nc3ccc4scnc4c3)[C@@H](F)C2)c1Cl (racemic) | 49 mL/min/kg | 2% | 6 mL/min/kg | 10 nM | Fu [6]: 0.005; IC50 [13]: 110 nM; Fu [8]: 0.02; fraction unbound [9]: 0.05; Activity [14]: 3%
19 | C[C@@H]1CN(S(=O)(=O)c2ccc3c(c2)CCO3)CC[C@@H]1C(=O)Nc1ccc2scnc2c1 (racemic) | 550 mL/min/kg | 3% | 199 mL/min/kg | 419 nM | 
20 | C[C@H]1CN(S(=O)(=O)c2ccc3c(c2)CCO3)CC[C@@H]1C(=O)Nc1ccc2scnc2c1 (racemic) | 506 mL/min/kg | 3% | 79 mL/min/kg | 1530 nM | 
21 | C[C@@H]1C[C@@H](C(=O)Nc2ccc3scnc3c2)CCN1S(=O)(=O)c1ccc2c(c1)CCO2 (racemic) | 520 mL/min/kg | 3% | 114 mL/min/kg | 94 nM | 
